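Five compound concentrations were applied to cells in 96-well plates for 48 hours; endpoints were derived by simple linear interpolation of the resulting dose-response curve. TGI denotes the concentration required for complete inhibition of growth.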
Test system: 786-0 renal
Assay: NCI-60 cell line screen, 48 h

Compound	TGI [µM]
CCOC(=O)c1c2ccccc2n2c(N)c(C(N)=O)nnc12	> 100
Cc1cc(N(CCC#N)CCC#N)ccc1/C(N=Nc1ccc(Cl)cc1)=N\NC(=O)c1ccccc1	> 100
CC[C@@]1(O)C(=O)OCc2c1cc1n(c2=O)Cc2c-1nc1ccccc1c2/C=N\NC(=O)CN	5.7
CCc1ccc(CCN2CCCCC2)nc1	> 100
O=C(NNC(=O)c1ccccc1SSc1ccccc1C(=O)NNC(=O)c1ccccc1S)c1ccccc1S	98
O=C1/C(=C/c2ccc(O)cc2)CC/C1=C\c1ccc(O)cc1	> 100
CC(C)C1/C(=N/O)CC(c2ccccc2)N(N=O)C1c1ccccc1 (configuration not stated)	> 100
CC1(C)N=C(/C(Cl)=[N+](/[O-])C(=O)c2ccc(F)cc2)C(C)(C)N1O	27.7
COC(=O)[C@H](Cc1c[nH]c2ccccc12)NP(=O)(O)OCC1C=CC(n2cc(C)c(=O)[nH]c2=O)O1 (some centres not stated)	> 100
COc1cc(/C=C2\S/C(=N/Nc3nc(-c4ccc(Br)cc4)cs3)NC2=O)cc(OC)c1OC	26.5
COC(=O)[C@H]1CO[C@@H](C(C)(C)C)N1C(=O)N1C=CC(=O)C[C@@H]1C	> 100
Clc1ccc(/C=C/c2nc3ccccc3s2)cc1Cl	32.1
CCC1(O)CC2CC(=O)OC2C1O (configuration not stated)	> 100
Cc1ccc(SCC(CSCCO)OCn2cnc3c2NC(N)=NC32OCCO2)cc1 (configuration not stated)	> 100
C(/c1ccco1)=c1/nc(-c2ccccc2)n2c1nc1ccccc12	> 100
COC(=O)C1CCC(=O)N1C(c1ccccc1)c1ccc(OC)c(OC)c1 (configuration not stated)	> 100
Oc1cccc2c(Cl)ccnc12	> 100
Cc1cccc(/C=N/NC(=S)Nc2ccccc2)n1	9.14
N#CC1=C(N)N(c2ccccc2)C(c2ccco2)C1(C#N)C#N (configuration not stated)	35.1
Cc1cc(=O)[nH]c(NN2C(Cl)C(=O)C2c2ccccc2O)n1 (configuration not stated)	> 100
COc1ccc(/C=C2\CCC(C)C3=C2NC(=S)NC3c2ccc(OC)c(OC)c2)cc1OC (configuration not stated)	> 31.6
COc1ccc(CNc2nc(NCc3ccc(OC)c(OC)c3)nc(NC3CCCCC3)n2)cc1	> 100
C=C(C1=CC(=O)C(C)(C)O1)[C@@H]1CC=C([C@@H]2CC[C@H]3[C@@]2(C)CC[C@H]2C(C)(C)C(=O)[C@H](O)C[C@]32C)[C@H](O)O1	0.79
CNC(=O)OCC1=C(COC(=O)NC)C(C)N(c2ccc(OC)cc2)C1 (configuration not stated)	> 100
O=C1CCC(=O)N1n1c(Cc2ccccc2)n[nH]c1=O	> 100
Cc1nc(C(N)=S)sc1/C(CC(=O)C(=O)Nc1cccc2ccc(O)cc12)=N\NC(=O)c1ccncc1	> 100
Cc1cn(C2CC(N(O)C(N)=O)C(CO)O2)c(=O)[nH]c1=O (configuration not stated)	> 100
O=C(O)c1cccc2c1/C(=N/Nc1ccccc1)CC2	> 100
O=C(Cc1cccs1)N[C@@H]1C(=O)N2C(C(=O)OC(c3ccccc3)c3ccccc3)=C(CO)CS[C@H]12	> 100
Cc1ccccc1-n1c(=O)c2ncn(CCCl)c2n(-c2ccccc2C)c1=S	> 100

Test system: A498 renal
Assay: NCI-60 cell line screen, 48 h

Compound	TGI [µM]
O=c1[nH][nH]c(=O)n1Cc1ccccc1Cn1c(=O)[nH][nH]c1=O	> 100
CCNC(=S)N/N=C/c1cc([N+](=O)[O-])ccc1O	69.1
CCOC(=O)c1c2ccccc2n2c(N)c(C(N)=O)nnc12	71
Cc1cc(N(CCC#N)CCC#N)ccc1/C(N=Nc1ccc(Cl)cc1)=N\NC(=O)c1ccccc1	58.5
CC[C@@]1(O)C(=O)OCc2c1cc1n(c2=O)Cc2c-1nc1ccccc1c2/C=N\NC(=O)CN	3.76
CCc1ccc(CCN2CCCCC2)nc1	> 100
CNC(=O)C(C)C1CCC2(C)C=CC(=O)C(C)=C2C1O (configuration not stated)	> 100
CCOc1cc2c(cc1O)/C(=N\OC)C[C@@H]1[C@@H]2CC[C@]2(C)[C@@H](O)CC[C@@H]12	0.944
O=C1/C(=C/c2ccc(O)cc2)CC/C1=C\c1ccc(O)cc1	> 100
COC(=O)[C@H](Cc1c[nH]c2ccccc12)NP(=O)(O)OCC1C=CC(n2cc(C)c(=O)[nH]c2=O)O1 (some centres not stated)	> 100
COC(=O)[C@H]1CO[C@@H](C(C)(C)C)N1C(=O)N1C=CC(=O)C[C@@H]1C	> 100
O=C(Nc1ccc(C2=NCCN2)cc1)c1cncc(C(=O)Nc2ccc(C3=NCCN3)cc2)c1	> 100
CCC1(O)CC2CC(=O)OC2C1O (configuration not stated)	> 100
Cc1ccc(SCC(CSCCO)OCn2cnc3c2NC(N)=NC32OCCO2)cc1 (configuration not stated)	> 100
C(/c1ccco1)=c1/nc(-c2ccccc2)n2c1nc1ccccc12	> 100
COC(=O)C1CCC(=O)N1C(c1ccccc1)c1ccc(OC)c(OC)c1 (configuration not stated)	> 100
Oc1cccc2c(Cl)ccnc12	> 43.5
Cc1cccc(/C=N/NC(=S)Nc2ccccc2)n1	67
N#CC1=C(N)N(c2ccccc2)C(c2ccco2)C1(C#N)C#N (configuration not stated)	49.1
Cc1cc(=O)[nH]c(NN2C(Cl)C(=O)C2c2ccccc2O)n1 (configuration not stated)	> 100
COc1ccc(/C=C2\CCC(C)C3=C2NC(=S)NC3c2ccc(OC)c(OC)c2)cc1OC (configuration not stated)	> 31.6
COc1ccc2c(=O)c(O)c(-c3ccc(OC)c(OC)c3)oc2c1	> 100
